Experimental findings from patent US6558900B2, “Regulation of apoptosis and in vitro model for studies thereof” (Emory University, priority 1996, dated 2003) are described below.

Common to all, as to format: biochemical
Assay [1] deals with CPP32. Kind of assay: dATP and cytochrome c-dependent activation of CPP32 in S-100 from human embryonic kidney 293 cells. Here is the method: (§1) FIG. 8 illustrates dATP and cytochrome c-dependent activation of CPP32 in S-100 cytosol preparations (immunodepleted of cytochrome c) from human embryonic kidney 293 cells and human monoblastic U937 cells. CPP32 activation reactions were carried out as described in FIG. 7 except 25 μg of S-100 was used in each reaction. 1 mM of dATP was present in lanes 2, 4, 6, 8, 10, and 12. Lanes 1 and 2, S-100 fraction from 293 cells; Lanes 3-4, S-100 fraction from 293 cells immunodepleted of cytochrome c; lanes 5 and 6, S-100 fraction from 293 cells immunodepleted of cytochrome c supplemented with 0.2 μg of Apaf-2 purified through the Mono S column step; Lanes 7 and 8, S-100 fraction from U937 cells; […], S-100 fraction from U937 cells immunodepleted of cytochrome c; lanes 11,12, S-100 fraction from U937 cells immunodepleted of cytochrome c supplemented with 0.2 μg of Apaf-2 purified through Mono S column step.
(§2) To investigate whether the dATP and cytochrome c-dependent activation of CPP32 is a general phenomenon, cytosols were prepared from human embryonic kidney 293 cells and human monoblastic leukemia U937 cells.
(§3) 293 cells were set up at 5×10^5 cells per 100 mm dish in medium A [Dulbecco's modified Eagle's medium (DMEM) supplemented with 10% (v/v) heat-inactivated fetal calf serum, 100 U/ml penicillin and 100 μg/ml streptomycin sulfate]. […]

Assay [2] relates to CPP32. Kind of assay: dATP and cytochrome c-dependent activation of CPP32 in S-100 from human monoblastic U937 cells. Here is the method:
as §1, §2, §3

Another assay concerns hamster liver nuclei. Description: DNA fragmentation assay (HeLa S-100 incubated with hamster liver nuclei). The note with it: 1 mM nucleotide, 37° C., 2 hr. Here is the method: FIGS. 1A-1D illustrate dATP-dependent activation of CPP32 and DNA fragmentation in vitro. Aliquots (10 μl) of HeLa cell S-100 (50 μg) were incubated alone (lane 1), in the presence of 1 mM ATP (lane 2), or in the presence of 1 mM dATP (lane 3) at 30° C. for 1 hr in a final volume of 20 μl of buffer A. FIG. 1A, samples were subjected to SDS-PAGE and transferred to a nitrocellulose filter, probed with a monoclonal anti-CPP32 antibody, and the antigen/antibody complex was visualized by the ECL method. The filter was exposed to Kodak X-OMAT AR X-ray film for 1 min. In FIG. 1B, an aliquot of 10 μl of in vitro translated, ^35S-labeled PARP was added to each reaction. After 5 min, the samples were subjected to SDS-PAGE and transferred to a nitrocellulose filter. The filter was exposed to film for 2 hr at room temperature. In FIG. 1C, a 5 μl aliquot of in vitro translated, ^35S-labeled SREBP-2 was added to each reaction. After incubation at 30° C. for 30 min, the samples were subjected to SDS-PAGE, the gel was dried and exposed to film for 2 hr at room temperature. […]
FIGS. 2A-2B illustrate the nucleotide specificity for in vitro activation of CPP32 and DNA fragmentation. […] The DNA was isolated, analyzed by 2% agarose gel electrophoresis and visualized by ethidium bromide staining. […]

For “Apaf-2: 15 kDa factor bound to phosphocellulose column, purified from HeLa S-100, identified as human cytochrome c”, the “restoration of CPP32 activating activity” value with CPP32 [1] (293 cell S-100 immunodepleted of cytochrome c, 0.2 μg, 1 mM dATP) is “restored the activity”; in the assay with CPP32 [2] (U937 cell S-100 immunodepleted of cytochrome c, 0.2 μg, 1 mM dATP), “restored the activity”.
In the case of `Nc1ncnc2c1ncn2[C@H]1C[C@H](O)[C@@H](COP(=O)(O)OP(=O)(O)OP(=O)(O)O)O1` [dATP, deoxyadenosine-5-triphosphate], in the assay with hamster liver nuclei, the “DNA fragmentation in hamster liver nuclei” value is “induced DNA fragmentation”. The “dATP-dependent CPP32 activating activity of S-100” value in the assay with CPP32 [1] (293 cell S-100, 1 mM dATP) is listed as “contained a dATP-dependent CPP32 activating activity”; in the assay on CPP32 [2] (U937 cell S-100, 1 mM dATP), “contained a dATP-dependent CPP32 activating activity”.
